Measurements from US20250136568A1, “FUSED HETEROCYCLIC COMPOUNDS AS PI3KALPHA INHIBITORS” (Nanjing Zenshine Pharmaceuticals Co., Ltd., priority 2021, published 2025).
Where two headings read alike, the source gives them in different places.

Legend:
Type in all cases: cell-based
[1] = test system: PI3Kα wide type cell line SK-BR-3; test: Cell Proliferation IC50 Assay (CellTiter-Glo), SK-BR-3; conditions: Homo sapiens; SK-BR-3 (PI3Kα wild type), 72 hours, CellTiter-Glo; read-out: IC50 (μM) SK-BR-3
Method in brief: (§1)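 Cells were seeded and left overnight, then exposed to serially diluted compound (200-fold final dilution) for 72 h at 37 °C, 5% CO2. Viability was read by CellTiter-Glo luminescence. Percent inhibition and IC50 were calculated from the signal.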

[2] = test system: PI3Kα H1047R mutation cell line T-47D; test: Cell Proliferation IC50 Assay (CellTiter-Glo), T-47D; conditions: Homo sapiens, T47D, 72 h, T47D (H1047R), 72 hours, CellTiter-Glo; read-out: IC50 (μM) T47D
Method in brief: as §1

[3] = test system: PI3Kα H1047R mutation cell line MDA-MB-453; test: Cell Proliferation IC50 Assay (CellTiter-Glo), MDA-MB-453; conditions: Homo sapiens, read-out: IC50 (μM) MDA-MB-453
Description: PI3Kα H1047R mutation cell line T-47D and MDA-MB-453, E545K mutation cell line MDA-MB-361 and PI3Kα wide type cell line SK-BR-3 were purchased from Cobioer Biotech (cat. no CBP60397, CBP60386, CBP60383 and CBP60413 respectively). The CellTiter-Glo Direct Cell Proliferation Assay Kit was purchased from Prornega (cat. No. G7573)
For cell proliferation assay in each cell line: • a. Prepare complete medium (R PMI 1640, DMEM or McCoys): Add FBS and appropriate additives according to the information sheet provided by the vendor. Mix gently. • b. Prepare single cell suspension and count the cell numbers and adjust cells to appropriate density. • c. Add 80 μL of cell suspension to 96-well opaque-walled clear bottom plates according to the planned plate layout and place the plates in the CO2 incubator overnight. • d. Prepare intermediate plate: 10 μl of diluted test compounds or staurosporine solution (200×) is added to a 96 deep well plate. Then 390 μl of culture medium without FBS is added to the respective wells. • e. Transfer 20 μL of the solutions from the above intermediate plate to the wells of the plate prepared containing 80 μL of the culture medium and cells. The total dilution is 200 folds. • f. The cells were then incubated at 5% CO2, 37° C. for 72 hours. • g. Equilibrate the plate and its contents to room temperature for approximately 30 minutes. • h. Add 100 μL of CellTiter-Glo reagent to the assay plate • i. Mix contents for 10 minutes on an orbital shaker to induce cell lysis. • j. Allow the plate to incubate at room temperature for 10 minutes to stabilize luminescent signal, • k. Paste the clear bottom with white back seal and record luminescence with Varioskan LUX plate reader.
Inhibition % and IC50 value were calculated by the formula described below: […]

[4] = MDA-MB-453 (H1047R), 72 hours, CellTiter-Glo

| SMILES | IC50 [1] | IC50 [2] | IC50 [3, 4] | IC50 ([3]; MDA-MB-453, 72 h) |
| --- | --- | --- | --- | --- |
| Cc1cc(C(C)Nc2ccccc2C(=O)O)c2oc(-c3ccc4c(c3)C(=O)N(C)C4)cc(=O)c2c1 (stereo not shown) [Example 23, 2-((1-(6-methyl-2-(2-methyl-3-oxoisoindolin-5-yl)-4-oxo-4H-chromen-8-yl)ethyl)amino)benzoic acid] | > 10 µM | 3.2 µM | 6.3 µM |  |
| Cc1cc(C(C)Nc2ccccc2C(=O)O)c2oc(-c3ccncc3)cc(=O)c2c1 (stereo not shown) [Example 33, 2-((1-(6-methyl-4-oxo-2-(pyridin-4-yl)-4H-chromen-8-yl)ethyl)amino)benzoic acid] | > 10 µM | 0.32 µM | 0.42 µM |  |
| Cc1cc(C(C)Nc2ccccc2C(=O)O)c2oc(-c3cc4ccccc4[nH]3)cc(=O)c2c1 (stereo not shown) [Example 25, 2-((1-(2-(1H-indol-2-yl)-6-methyl-4-oxo-4H-chromen-8-yl)ethyl)amino)benzoic acid] | > 10 µM | 0.27 µM | 0.32 µM |  |
| Cc1cc(C(C)Nc2ccccc2C(=O)O)c2oc(-c3ccc4nn(C5COC5)cc4c3)cc(=O)c2c1 (stereo not shown) [Example 56, 2-((1-(6-methyl-2-(2-(oxetan-3-yl)-2H-indazol-5-yl)-4-oxo-4H-chromen-8-yl)ethyl)amino)benzoic acid] | > 10 µM |  | 0.55 µM |  |
| COCCn1cc2cc(-c3cc(=O)c4cc(C)cc(C(C)Nc5ccccc5C(=O)O)c4o3)ccc2n1 (stereo not shown) [Example 58, 2-((1-(2-(2-(2-methoxyethyl)-211-indazol-5-yl)-6-methyl-4-oxo-4H-chromen-8-yl)ethyl)amino)benzoic acid] | > 10 µM |  | 0.27 µM |  |
| CC(=O)N1CCN(c2ccc(-c3cc(=O)c4cc(C)cc(C(C)Nc5ccccc5C(=O)O)c4o3)cc2)CC1 (stereo not shown) [Example 65, 2-((1-(2-(4-(4-acetylpiperazin-1-yl)phenyl)-6-methyl-4-oxo-4H-chromen-8-yl)ethyl)amino)benzoic acid] | > 10 µM |  | 0.21 µM |  |
| Cc1cc([C@@H](C)Nc2ccccc2C(=O)O)c2oc(-c3ccc(N4CCN(C5COC5)CC4)cc3)c(C)c(=O)c2c1 [Example 118, (R)-2-((1-(3,6-dimethyl-2-(4-(4-(oxetan-3-yl)piperazin-1-yl)phenyl)-4-oxo-4H-chromen-8-yl)ethyl)amino)benzoic acid] | 7.52 µM |  |  | 0.14 µM |
| Cc1cc(C(C)Nc2ccccc2C(=O)O)c2oc(-c3ccc(S(C)(=O)=O)cc3)c(C)c(=O)c2c1 (stereo not shown) [Example 127, 2-((1-(3,6-dimethyl-2-(4-(methylsulfonyl)phenyl)-4-oxo-4H-chromen-8-yl)ethyl)amino)benzoic acid] | > 10 µM |  | > 10 µM |  |
| Cc1cc([C@@H](C)Nc2ccccc2C(=O)O)c2oc(-c3ccnc(N4CCOCC4)c3)c(C)c(=O)c2c1 [Example 133, (R)-2-((1-(3,6-dimethyl-2-(2-morpholinopyridin-4-yl)-4-oxo-411-chromen-8-yl)ethyl)amino)benzoic acid] | > 10 µM |  | 1.18 µM |  |
| Cc1cc(C(C)Nc2ccccc2C(=O)O)c2oc(-c3ccc4c(c3)N(C)C(=O)C4)cc(=O)c2c1 (stereo not shown) [Example 21, 2-((1-(6-methyl-2-(1-methyl-2-oxoindolin-6-yl)-4-oxo-4H-chromen-8-yl)ethyl)amino)benzoic acid] | > 10 µM |  | > 10 µM |  |
| Cc1cc(C(C)Nc2ccccc2C(=O)O)c2oc(-c3ccc(C(=O)N(C)C)c(C)c3)cc(=O)c2c1 (stereo not shown) [Example 48, 2-((1-(2-(4-(dimethylcarbamoyl)-3-methylphenyl)-6-methyl-4-oxo-4H-chromen-8-yl)ethyl)amino)benzoic acid] | > 10 µM |  | 0.76 µM |  |
| Cc1cc(C(C)Nc2ccccc2C(=O)O)c2oc(-c3ccc(N4CCS(=O)(=O)CC4)cc3)c(C)c(=O)c2c1 (stereo not shown) [Example 132, 2-((1-(2-(4-(1,1-dioxidothiomorpholino)phenyl)-3,6-dimethyl-4-oxo-4H-chromen-8-yl)ethyl)amino)benzoic acid] | > 10 µM |  | 0.27 µM |  |
| Cc1cc(C(C)Nc2ccccc2C(=O)O)c2oc(-c3ccc4nn(C)cc4n3)cc(=O)c2c1 (stereo not shown) [Example 84, 2-((1-(6-methyl-2-(2-methyl-2H-pyrazolo[4,3-b]pyridin-5-yl)-4-oxo-4H-chromen-8-yl)ethyl)amino)benzoic acid] | > 10 µM |  | 0.26 µM |  |
| Cc1cc(C(C)Nc2ccccc2C(=O)O)c2oc(-c3ccc(N4CCOC(C)C4)cc3)cc(=O)c2c1 (stereo not shown) [Example 67, 2-((1-(6-methyl-2-(4-(2-methylmorpholino)phenyl)-4-oxo-4H-chromen-8-yl)ethyl)amino)benzoic acid] | > 10 µM |  | 0.2 µM |  |
| Cc1cc(C(C)Nc2ccccc2C(=O)O)c2oc(-c3ccc(=O)n(C)c3)cc(=O)c2c1 (stereo not shown) [Example 50, 2-((1-(6-methyl-2-(1-methyl-6-oxo-1,6-dihydropyridin-3-yl)-4-oxo-4H-chromen-8-yl)ethyl)amino)benzoic acid] | > 10 µM |  | 6.39 µM |  |
| Cc1cc(C(C)Nc2ccccc2C(=O)O)c2oc(-c3cncs3)cc(=O)c2c1 (stereo not shown) [Example 27, 2-((1-(6-methyl-4-oxo-2-(thiazol-5-yl)-4H-chromen-8-yl)ethyl)amino)benzoic acid] | > 10 µM |  | 0.74 µM |  |
| Cc1cc(C(C)Nc2ccccc2C(=O)O)c2oc(-c3cc4cn(C)nc4cc3C)cc(=O)c2c1 (stereo not shown) [Example 61, 2-((1-(2-(2,6-dimethyl-21-indazol-5-yl)-6-methyl-4-oxo-4H-chromen-8-yl)ethyl)amino)benzoic acid] | > 10 µM |  | 8.48 µM |  |
| Cc1cc(C(C)Nc2ccccc2C(=O)O)c2oc(-c3ccc(CN4CCOCC4)cc3)c(C)c(=O)c2c1 (stereo not shown) [Example 128, 2-((1-(3,6-dimethyl-2-(4-(morpholinomethyl)phenyl)-4-oxo-4H-chromen-8-yl)ethyl)amino)benzoic acid] | > 10 µM |  | 0.16 µM |  |
| CCN1Cc2cc(-c3cc(=O)c4cc(C)cc(C(C)Nc5ccccc5C(=O)O)c4o3)ccc2C1=O (stereo not shown) [Example 7, 2-((1-(2-(2-ethyl-1-oxoisoindolin-5-yl)-6-methyl-4-oxo-4H-chromen-8-yl)ethyl)amino)benzoic acid] | > 10 µM |  | 0.25 µM |  |
| Cc1cc(C(C)Nc2ccccc2C(=O)O)c2oc(-c3ccc4nn(CCO)cc4c3)cc(=O)c2c1 (stereo not shown) [Example 57, 2-((1-(2-(2-(2-hydroxyethyl)-2H-indazol-5-yl)-6-methyl-4-oxo-4H-chromen-8-yl)ethyl)amino)benzoic acid] | > 10 µM |  | 0.62 µM |  |
| Cc1cc(C(C)Nc2ccccc2C(=O)O)c2oc(-c3ccc(N4CCOCC4C)cc3)cc(=O)c2c1 (stereo not shown) [Example 66, 2-((1-(6-methyl-2-(4-(3-methylmorpholino)phenyl)-4-oxo-4H-chromen-8-yl)ethyl)amino)benzoic acid] | > 10 µM |  | 0.2 µM |  |
| Cc1cc(C(C)Nc2ccccc2C(=O)O)c2oc(-c3ccc4c(c3)CN(C(C)C)C4=O)cc(=O)c2c1 (stereo not shown) [Example 44, -((1-(2-(2-isopropyl-1-oxoisoindolin-5-yl)-6-methyl-4-oxo-4H-chromen-8-yl)ethyl)amino)benzoic acid] | > 10 µM |  | 0.39 µM |  |
| Cc1cc(C(C)Nc2ccccc2C(=O)O)c2oc(C3CCN(c4cccnc4)CC3)c(C)c(=O)c2c1 (stereo not shown) [Example 125, 2-((1-(3,6-dimethyl-4-oxo-2-(1-(pyridin-3-yl)piperidin-4-yl)-4H-chromen-8-yl)ethyl)amino)benzoic acid] | > 10 µM |  | 0.4 µM |  |
